According to US20160039742A1, “EXTRACTION OF TRAMADOL FROM NAUCLEA LATIFOLIA SMITH” ([…] FOURIER - GRENOBLE 1, priority 2013, published 2016):
Marks after values point to notes of the source that are not given here.

How the values were obtained:
[1] = tested on: acetic acid-induced abdominal constrictions in mice; test: Acetic acid induced abdominal constriction (writhing) test; format: in vivo
Protocol: (§1) Experiments in mice were performed on C57BL/6 male mice (Janvier, Le-Genest-St-Isle, France) weighting 26-35 g, housed in individual cages with food and water ad libitum and kept in a 12 hours/12 hours light-dark cycle. All animal experimentations were carried out in accordance with the rules of the European Committee Council Directive of Nov. 24, 1986 (86/609/EEC) and all procedures were approved by the local department of the veterinarian services for the use and care of animals (agreement #380612). All efforts were made to minimize animal suffering and reduce the number of animals used in each series of experiments.
One hour after oral administration of these substances, each animal was injected i.p. with 0.6% acetic acid in a volume of 10 ml/kg body weight. After acetic acid injection, the number of stretching or writhing responses per animal was recorded during 30 min after a latency period of 5 min. Inhibition was expressed in percentage.
Data were analyzed by two-way Anova followed by Tukey's (HSD) multi-comparison test.

[2] = tested on: hotplate-induced pain in mice; test: Hotplate test; format: in vivo
Protocol: as §1
The apparatus consisted of a water bath in which was placed a metallic cylinder (14 cm diameter×10 cm height). The hot plate was maintained at 55±0.5° C. Each mouse (six per group) acted as its own control. One hour before treatment, the reaction time of each mouse (liking of the forepaws or jumping response) was measured twice with a 10 min interval. The average of the two readings was obtained as the initial reaction time.
(§2) The protection percentage was calculated as the ratio (reaction time following tramadol administration−initial reaction time): initial reaction time.

[3] = tested on: tail flick response in mice after immersion in 55° C. water bath; test: Tail-flick test; format: in vivo
Protocol: as §1
The tail-flick test was carried out according to the method described by D'Amour and Smith. This involved immersing extreme 3 cm of the mice's tail in water bath containing water at a temperature of 55±0.5° C. […] The reaction time was recorded with a stopwatch. […] The reaction time of mice was taken at intervals of 15, 30 and 60 min after a latency period of 1 hour following the administration of the decoction and drugs.
as §2

[4] = tested on: glutamate-induced nociception in mice; test: Glutamate-induced nociception; format: in vivo
Protocol: as §1
Animals were treated with the purified tramadol isolated from Nauclea Latifolia (8, 16 or 32 mg/kg, p.o.), dipyrone (60 mg/kg, p.o.) or 0.9% NaCl (p.o.) 1 hour before test. A volume of 20 μl of glutamate (30 μmol/paw) was injected intraplantarly in the ventral surface of the right hind paw. Animals were observed individually for 15 min following glutamate injection. The amount of time they spent licking the injected paw was recorded with a chronometer and was considered as indicative of nociception. Data were analyzed by two-way Anova followed by Tukey's (HSD) multi-comparison test.

formalin-induced pain = test: Formaline-induced nociception (formalin test); format: in vivo, mice; conditions: 32 mg/kg p.o.
Protocol: as §1
The formalin test was carried out as described by Hunskaar and Hole (1987) with slight modifications. The negative control was treated with 0.9% NaCl. […] Other groups of mice were treated with methanolic fractions of Nauclea Latifolia (16, 40 or 80 mg/kg, p.o.), or purified tramadol isolated from Nauclea Latifolia (8, 16 and 32 mg/kg, p.o.). Pain was induced by injecting 50 μl of 2.5% formalin (40% formaldehyde in distilled water) in the right hind paw pad. […] The amount of time spent licking and biting the injected paw was indicative of pain and was recorded during the first 0-5 min (first phase), followed by the 15-30 min period (second phase). Data were analyzed by two-way Anova followed by Tukey's (HSD) multi-comparison test.

CC(=O)Oc1ccccc1C(=O)O [Aspirin, reference compound]
Acetic acid-induced writhing inhibition (%) ([1]; 150 mg/kg p.o.): 52.9%
Protection against thermal nociception (%) ([2]; 150 mg/kg p.o., 0.5 hr): 1.7%
Protection against thermal nociception (%) ([2]; 150 mg/kg p.o., 1 hr): 35.5* %
Protection against thermal nociception (%) ([2]; 150 mg/kg p.o., 2 hrs): 2.2* %
Protection against thermal nociception (%) ([2]; 150 mg/kg p.o., 3 hrs): 39.5* %
Protection against thermal nociception (%) ([2]; 150 mg/kg p.o., 4 hrs): 8.5%
Protection against thermal nociception (%) ([2]; 150 mg/kg p.o., 5 hrs): 10.6%
Protection against thermal nociception (%) ([2]; 150 mg/kg p.o., 6 hrs): 3.5%
Protection agains thermal nociception (%) ([3]; 150 mg/kg p.o., 15 min): 6.4%
Protection agains thermal nociception (%) ([3]; 150 mg/kg p.o., 30 min): 9.5%
Protection agains thermal nociception (%) ([3]; 150 mg/kg p.o., 60 min): 7.1%

Cc1c(N(C)CS(=O)(=O)[O-])c(=O)n(-c2ccccc2)n1C.[Na+] [dipyrone, reference compound]
inhibition of glutamate-induced nociception ([4]; dipyrone (60 mg/kg, p.o.)): 70.30%

CN1CC[C@]23c4c5ccc(O)c4O[C@H]2[C@@H](O)C=C[C@H]3[C@H]1C5 [Morphine, reference compound]
Protection against thermal nociception (%) ([2]; 5 mg/kg s.c., 0.5 hr): 7.4%
Protection against thermal nociception (%) ([2]; 5 mg/kg s.c., 1 hr): 44.4** %
Protection against thermal nociception (%) ([2]; 5 mg/kg s.c., 2 hrs): 46.8** %
Protection against thermal nociception (%) ([2]; 5 mg/kg s.c., 3 hrs): 40.4** %
Protection against thermal nociception (%) ([2]; 5 mg/kg s.c., 4 hrs): 43.6** %
Protection against thermal nociception (%) ([2]; 5 mg/kg s.c., 5 hrs): 24.6* %
Protection against thermal nociception (%) ([2]; 5 mg/kg s.c., 6 hrs): 17.1%
Protection agains thermal nociception (%) ([3]; 5 mg/kg s.c., 15 min): 27.3%
Protection agains thermal nociception (%) ([3]; 5 mg/kg s.c., 30 min): 62.1*** %
Protection agains thermal nociception (%) ([3]; 5 mg/kg s.c., 60 min): 77.8*** %

COc1cccc([C@]2(O)CCCC[C@H]2CN(C)C)c1 (racemic) [F27 of N. latifolia, (±)-cis-2-dimethylaminomethyl-1-(3-methoxyphenyl)cyclohexanol]
counter effect of naloxone on acetic acid-induced writhing ([1]; FIG. 4): absence of counter effect of naloxone
bioactivity of HPLC fractions in the writhing test ([1]; HPLC fractions of root bark extract, writhing test): peak of activity
mean ID50 (95% confidence limits), acetic acid-induced abdominal constrictions ([1]; oral administration): 14.13 (5.53-41.88) mg/kg
blockade of pain emanating from inflammation, second phase (15-30 min) of formalin test (formalin-induced pain): 31.74%
neurogenic-induced pain blockade, first phase (0-5 min) of formalin test (formalin-induced pain): 64.07%
Protection against thermal nociception (%) ([2]; 8 mg/kg p.o., 0.5 hr): −2.2%
Protection against thermal nociception (%) ([2]; 8 mg/kg p.o., 1 hr): 22.9%
Protection against thermal nociception (%) ([2]; 8 mg/kg p.o., 2 hrs): 20.2* %
Protection against thermal nociception (%) ([2]; 8 mg/kg p.o., 3 hrs): 50.6** %
Protection against thermal nociception (%) ([2]; 8 mg/kg p.o., 4 hrs): 4.6%
Protection against thermal nociception (%) ([2]; 8 mg/kg p.o., 5 hrs): −0.2%
Protection against thermal nociception (%) ([2]; 8 mg/kg p.o., 6 hrs): −0.5%
Protection against thermal nociception (%) ([2]; 16 mg/kg p.o., 0.5 hr): 1.9%
Protection against thermal nociception (%) ([2]; 16 mg/kg p.o., 1 hr): 27.0* %
Protection against thermal nociception (%) ([2]; 16 mg/kg p.o., 2 hrs): 21.3* %
Protection against thermal nociception (%) ([2]; 16 mg/kg p.o., 3 hrs): 52.4** %
Protection against thermal nociception (%) ([2]; 16 mg/kg p.o., 4 hrs): 6.5%
Protection against thermal nociception (%) ([2]; 16 mg/kg p.o., 5 hrs): −2.0%
Protection against thermal nociception (%) ([2]; 16 mg/kg p.o., 6 hrs): 4.6%
Protection against thermal nociception (%) ([2]; 32 mg/kg p.o., 0.5 hr): 1.9%
Protection against thermal nociception (%) ([2]; 32 mg/kg p.o., 1 hr): 45.2** %
Protection against thermal nociception (%) ([2]; 32 mg/kg p.o., 2 hrs): 50.9** %
Protection against thermal nociception (%) ([2]; 32 mg/kg p.o., 3 hrs): 71.9*** %
Protection against thermal nociception (%) ([2]; 32 mg/kg p.o., 4 hrs): 25.2* %
Protection against thermal nociception (%) ([2]; 32 mg/kg p.o., 5 hrs): 21.3* %
Protection against thermal nociception (%) ([2]; 32 mg/kg p.o., 6 hrs): 27.8* %
time at which increase in latency response reached maximal level ([2]; 32 mg/kg, oral administration): 3 h
effect of naloxone on antinociceptive effect in hot plate assay ([2]; mouse, in vivo): Naloxone antagonized antinociceptive effect
Protection agains thermal nociception (%) ([3]; 8 mg/kg p.o., 15 min): 7.7%
Protection agains thermal nociception (%) ([3]; 8 mg/kg p.o., 30 min): 14.4* %
Protection agains thermal nociception (%) ([3]; 8 mg/kg p.o., 60 min): 21.4* %
Protection agains thermal nociception (%) ([3]; 16 mg/kg p.o., 15 min): 5.6%
Protection agains thermal nociception (%) ([3]; 16 mg/kg p.o., 30 min): 34.3** %
Protection agains thermal nociception (%) ([3]; 16 mg/kg p.o., 60 min): 42.9*** %
reduction of painful sensation due to tail immersion in warm water ([3]; 32 mg/kg oral, after a latency period of 30 min): 63.05%
Protection agains thermal nociception (%) ([3]; 32 mg/kg p.o., 15 min): 18.7%
Protection agains thermal nociception (%) ([3]; 32 mg/kg p.o., 30 min): 63.0*** %
dose dependence of reduction of painful sensation in tail immersion ([3]; mouse, in vivo): dose-dependent
effect of naloxone on analgesic activity in tail-flick test ([3]; mouse, in vivo): blocked by naloxone
antinociception in glutamate-induced nociception ([4]; 8, 16 or 32 mg/kg, p.o.): marked and dose-related antinociception
mean ID50 (95% confidence limits), glutamate-induced nociception ([4]; p.o., 1 hour before test): 21.17 (6.49-47.23)
